Assay results published in the supplement of paper PMC7695840.
Where “and” joins values, the source holds several entries; their conditions need not be identical. Identical values can stand only once. Counter-ions that a name gives are not always drawn.

Tests used:
[1] = system: Staphylococcus aureus MW2 (mecA+); assay: IC50 (growth, competition assay); conditions: cefoxitin: subinhibitory
In short: (§1)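 Pre-induced, 1:1-mixed fluorescent S. aureus MW2 mecA+ and ΔmecA strains were grown 20 h at 37 °C, 90% humidity, unshaken, in LB with a daily-set subinhibitory cefoxitin dose, in 1536-well plates. Compounds were given on five- or nine-point 2-fold gradients, in two dye-swapped replicates. DsRed (540/590) and GFP (485/520) were scaled per plate between single-strain control medians, with No Treatment then set to 0.5. Per-strain IC50 was the dose halving the No Treatment signal, or the maximal signal.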

[2] = system: Staphylococcus aureus MW2 delta-mecA (mecA-); assay: IC50 (growth, competition assay); conditions: cefoxitin: subinhibitory
In short: as §1

SMILES	IC50 ([1]; fluorescent label: DsRed)	IC50 ([1]; fluorescent label: GFP)	IC50 ([2]; fluorescent label: DsRed)	IC50 ([2]; fluorescent label: GFP)
CCn1cc(C(=O)O)c(=O)c2cc(F)c(N3CCNC(C)C3)c(F)c21 (centres undefined) [Lomefloxacin hydrochloride (Maxaquin)]	1.76 µM	1.78 µM	0.56 µM	< 0.498 µM
N[C@@H]1CCCN(c2c(/C=C3\SC(=O)NC3=O)cccc2-c2ccccc2)C1 [AZD1208]	111 µM	101 µM	26.7 µM	22.8 µM
Cc1cc(SCc2sc(-c3ccc(C(F)(F)F)c(F)c3)nc2C)ccc1OCC(=O)O [GW0742]	11.6 µM	15.1 µM	< 9.85 µM	< 9.85 µM
O=C(O)c1ccc(N2C(=O)/C(=C\c3ccc(-c4ccc([N+](=O)[O-])cc4)o3)C=C2c2ccccc2)cc1 [4E1RCat]	54.5 µM	78.7 µM	18 µM	< 9.85 µM
COc1cccc2c1[C@@H]1CN(CCCCn3c(=O)[nH]c4c(sc5ncc(-c6ccccc6)nc54)c3=O)C[C@@H]1CO2 [Fiduxosin hydrochloride]	28.5 µM	29.8 µM	10.5 µM	12.6 µM
CCCCC(CC)COC(=O)CC(C(=O)OCC(CC)CCCC)S(=O)(=O)O (centres undefined) [COLACE]	56.6 µM	52.5 µM	18 µM	13.5 µM
C#CC[C@H](c1nc2cc(Cl)ccc2c(=O)n1Nc1ccccc1)N(CCCN)C(=O)c1cccc(Cl)c1F [ARQ 621]	89.2 µM	105 µM	23.9 µM	11.2 µM
Cc1onc(-c2c(Cl)cccc2Cl)c1C(=O)N[C@@H]1C(=O)N2[C@@H]1SC(C)(C)[C@@H]2C(=O)O [Dicloxacillin Sodium]	< 9.85 µM	< 9.85 µM	< 9.85 µM	< 9.85 µM
O=c1c2ccccc2[se]n1-c1ccccc1 [EBSELEN]	< 9.85 µM	< 9.85 µM	< 9.85 µM	< 9.85 µM
C[C@@H]1CN(c2c(F)c(F)c3c(=O)c(C(=O)O)cn(C4CC4)c3c2F)C[C@H](C)N1 [ORBAX]	< 9.85 µM	15.1 µM	17.8 µM	< 9.85 µM
CCCCCCCCCc1ccc(OCCOCCOCCOCCOCCOCCOCCOCCOCCO)cc1 [CONCEPTROL]	32 µM	37 µM	12.8 µM	< 9.85 µM
NC(N)=NC(=O)c1nc(Cl)c(N2CCCCCC2)nc1N [5-(N,N-hexamethylene)amiloride]	90.9 µM	108 µM	46.2 µM	60.9 µM
C[C@H]1c2cccc(O)c2C(=O)C2=C(O)[C@]3(O)C(=O)C(C(N)=O)=C(O)[C@@H](N(C)C)[C@@H]3[C@@H](O)[C@@H]21 [Doxycycline HCl]	< 9.85 µM	< 9.85 µM	< 9.85 µM	< 9.85 µM
C[C@H]1[C@H](C)CC[C@]2(C(=O)O)CC[C@]3(C)C(=CC[C@@H]4[C@@]5(C)C[C@@H](O)[C@H](O)[C@@](C)(CO)[C@@H]5[C@H](O)C[C@]43C)[C@H]12 [MADECASSIC ACID]	53.8 µM	54.5 µM	47.8 µM	30 µM
CN1C[C@@H]2C[C@H]1CN2c1cc2c(cc1F)c(=O)c(C(=O)O)cn2C1CC1 [Danofloxacin Mesylate]	< 9.85 µM	< 9.85 µM	< 9.85 µM	< 9.85 µM
O=C(O[C@@H]1Cc2c(O)cc(O)cc2O[C@@H]1c1cc(O)c(O)c(O)c1)c1cc(O)c(O)c(O)c1 [EPIGALLOCATECHIN-3-MONOGALLATE]	45.2 µM	63.3 µM	< 9.85 µM	< 9.85 µM
Cc1cc(CC(C)CC(C)(C)C)n(O)c(=O)c1 (centres undefined) [OCTOPIROX]	120 µM	106 µM	89.5 µM	70 µM
COC(=O)C1=C(C)NC(C)=C(C(=O)OCC(C)C)C1c1ccccc1[N+](=O)[O-] (centres undefined) [SULAR]	> 150 µM	> 150 µM	78 µM	51.8 µM
CO[C@@H]1[C@@H](OC(N)=O)[C@@H](O)[C@H](Oc2ccc3c(O)c(NC(=O)c4ccc(O)c(CC=C(C)C)c4)c(=O)oc3c2C)OC1(C)C [ALBAMYCIN]	< 9.85 µM	< 9.85 µM	< 9.85 µM	< 9.85 µM

SMILES	IC50 ([1]; fluorescent label: DsRed)	IC50 ([1]; fluorescent label: GFP)	IC50 ([2]; fluorescent label: DsRed)	IC50 ([2]; fluorescent label: GFP)
O=C(O)c1nn(Cc2ccc(Cl)cc2Cl)c2ccccc12 [Lonidamine]	27.7 µM	78.2 µM	22.4 µM	15 µM
CO[C@H]1/C=C/O[C@@]2(C)Oc3c(C)c(O)c4c(O)c(c(/C=N/N5CCN(C6CCCC6)CC5)c(O)c4c3C2=O)NC(=O)/C(C)=C\C=C\[C@H](C)[C@H](O)[C@@H](C)[C@@H](O)[C@@H](C)[C@H](OC(C)=O)[C@@H]1C [Rifapentine]	< 0.498 µM	< 0.498 µM	< 0.498 µM	< 0.498 µM
CC(C)(C)C#Cc1cc(N(C(=O)[C@H]2CC[C@H](C)CC2)[C@H]2CC[C@H](O)CC2)c(C(=O)O)s1 [VX-222]	25.7 µM	53.7 µM	16.8 µM	17.4 µM
Cc1nc2sccn2c(=O)c1CCN1CCC(=C(c2ccc(F)cc2)c2ccc(F)cc2)CC1 [Ritanserin]	57.5 µM	56.9 µM	17.3 µM	29 µM
CCC(Cc1c(I)cc(I)c(N)c1I)C(=O)O (centres undefined) [TELEPAQUE]	10.4 µM	27.5 µM	< 9.85 µM	< 9.85 µM
CCN(CC)CCN(Cc1ccc(-c2ccc(C(F)(F)F)cc2)cc1)C(=O)Cn1c(SCc2ccc(F)cc2)nc(=O)c2c1CCC2	< 9.85 µM	10.2 µM	< 9.85 µM	< 9.85 µM
CO[C@@]1(NC(=O)C2SC(=C(C(N)=O)C(=O)O)S2)C(=O)N2C(C(=O)O)=C(CSc3nnnn3C)CS[C@@H]21 (some centres undefined) [CEFOTAN]	14.9 µM	14.9 µM	< 9.85 µM	< 9.85 µM
COc1cc(-c2ccc(/N=N/c3ccc4c(S(=O)(=O)O)cc(S(=O)(=O)O)c(N)c4c3O)c(OC)c2)ccc1/N=N/c1ccc2c(S(=O)(=O)O)cc(S(=O)(=O)O)c(N)c2c1O [CHICAGO SKY BLUE]	24.8 µM	16.5 µM	< 9.85 µM	< 9.85 µM
NC[C@@H]1O[C@H](C23CC4CC(CC(C4)C2)C3)Cc2c1ccc(O)c2O	34.9 µM	56 µM	34.6 µM	54.9 µM
CCn1cc(C(=O)O)c(=O)c2ccc(C)nc21 [Nalidixic acid (NegGram)]	99.9 µM and 57.2 µM	110 µM and 57.2 µM	31.2 µM and 18.4 µM	17.2 µM and 16.7 µM
[O-][n+]1ccccc1[S-].[O-][n+]1ccccc1[S-].[Zn+2] [Zinc Pyrithione]	< 9.85 µM	< 9.85 µM	< 9.85 µM	< 9.85 µM
CO/N=C(\C(=O)N[C@@H]1C(=O)N2C(C(=O)O)=C(CSC(=O)c3ccco3)CS[C@H]12)c1csc(N)n1 [EXCENEL]	< 9.85 µM	< 9.85 µM	< 9.85 µM	< 9.85 µM
O=C(NC[C@H]1CN(c2ccc(N3CCOCC3=O)cc2)C(=O)O1)c1ccc(Cl)s1 [XARELTO]	< 9.85 µM	< 9.85 µM	< 9.85 µM	< 9.85 µM
CNC(=O)c1cc(Oc2ccc(NC(=O)Nc3ccc(Cl)c(C(F)(F)F)c3)cc2)ccn1 [Sorafenib]	< 9.85 µM	< 9.85 µM	< 9.85 µM	< 9.85 µM
O=C1Nc2ccc(I)cc2/C1=C/c1cc(Br)c(O)c(Br)c1 [GW5074]	< 9.85 µM	< 9.85 µM	< 9.85 µM	< 9.85 µM
C=C1C(=O)[C@]23[C@H](CC[C@@H]1[C@@H]2O)[C@]12CO[C@@]3(O)[C@H](O)[C@H]1C(C)(C)CC[C@@H]2O [RUBESCENSIN A]	36.3 µM	84.5 µM	17.9 µM	17.2 µM
c1ccc(-c2ccc(C(c3ccccc3)n3ccnc3)cc2)cc1 (centres undefined) [MYCOSPOR]	15.5 µM	19.1 µM	16.8 µM	10.5 µM
COc1c(N2CCNC(C)C2)c(F)cc2c(=O)c(C(=O)O)cn(C3CC3)c12 (centres undefined) [TEQUIN]	< 9.85 µM	< 9.85 µM	< 9.85 µM	< 9.85 µM
Clc1ccc(C(Cn2ccnc2)OCc2ccsc2Cl)c(Cl)c1 (centres undefined) [Tioconazole]	29.7 µM	17.8 µM	3.9 µM	14.2 µM

SMILES	IC50 ([1]; fluorescent label: DsRed)	IC50 ([1]; fluorescent label: GFP)	IC50 ([2]; fluorescent label: DsRed)	IC50 ([2]; fluorescent label: GFP)
CC(=O)/C=C1/C(=O)N(C)c2ccccc21 [Supercinnamaldehyde]	46.8 µM	60.4 µM	< 9.85 µM	< 9.85 µM
C[C@H]1O[C@@H](n2cc(F)c(=O)[nH]c2=O)[C@H](O)[C@@H]1O [FURTULON]	10.3 µM	< 9.85 µM	< 9.85 µM	< 9.85 µM
CNc1nc(-c2ccc3c(N)n[nH]c3c2)cc(N2C[C@@H](C(=O)NC3CCCCC3)CC[C@H]2C)n1	111 µM	111 µM	51.4 µM	26.4 µM
CCC[C@H](NC(=O)/C(C#N)=C/c1cccc(Br)n1)c1ccccc1 [WP1130]	13.7 µM	27.5 µM	2.28 µM	0.904 µM
CN(C)c1ccc(C(=C2C=CC(=[N+](C)C)C=C2)c2ccc(N(C)C)cc2)cc1 [GVS]	< 9.85 µM	< 9.85 µM	< 9.85 µM	< 9.85 µM
Oc1ccc(Cl)c2cccnc12 [CLOXYQUIN]	26.9 µM	89.7 µM	33.8 µM	< 9.85 µM
CC[C@H]1OC(=O)C[C@@H](O)[C@H](C)[C@@H](O[C@@H]2O[C@H](C)[C@@H](O[C@H]3C[C@@](C)(O)[C@@H](O)[C@H](C)O3)[C@H](N(C)C)[C@H]2O)[C@@H](CC=O)C[C@@H](C)C(=O)/C=C/C(C)=C/[C@@H]1CO[C@@H]1O[C@H](C)[C@@H](O)[C@@H](OC)[C@H]1OC [Tylosin tartrate]	< 9.85 µM	< 9.85 µM	< 9.85 µM	< 9.85 µM
CN1CCN(c2c(F)cc3c(=O)c(C(=O)O)cn4c3c2OCN4C)CC1 [Marbofloxacin]	6.41 µM	6.33 µM	2.09 µM	1.19 µM
O=C(O[C@@H]1Cc2c(O)cc(O)cc2O[C@@H]1c1ccc(O)c(O)c1)c1cc(O)c(O)c(O)c1 [EPICATECHIN MONOGALLATE]	83.7 µM	140 µM	22.9 µM	12.2 µM
CCN1C[C@H](C)n2c(c(O)c3c(=O)n(Cc4ccc(F)c(Cl)c4)nc(C(=O)NC)c32)C1=O [MK-2048]	80.3 µM	64 µM	39.3 µM	40.9 µM
O=C(O[C@@H]1Cc2c(O)cc(O)cc2O[C@@H]1c1cc(O)c(O)c(O)c1)c1cc(O)c(O)c(O)c1 [(-)-Epigallocatechin gallate]	27.4 µM and 17.3 µM	29.7 µM and 46.5 µM	4.65 µM and < 9.85 µM	3.45 µM and < 9.85 µM
CC1OC(n2cc(F)c(=O)[nH]c2=O)C(O)C1O (centres undefined) [5-fluoro-5'-deoxyuridine]	< 9.85 µM	< 9.85 µM	< 9.85 µM	< 9.85 µM
CN1CCN(CCCN2c3ccccc3Sc3ccc(Cl)cc32)CC1 [COMPAZINE]	139 µM	56.7 µM	34 µM	56.6 µM
Cc1cc(Nc2ncc(Cl)c(Nc3ccccc3S(=O)(=O)C(C)C)n2)c(OC(C)C)cc1C1CCNCC1 [Ceritinib (LDK378)]	29 µM	27.7 µM	< 9.85 µM	< 9.85 µM
CC[C@H]1OC(=O)[C@H](C)[C@@H](O[C@H]2C[C@@](C)(OC)[C@@H](O)[C@H](C)O2)[C@H](C)[C@@H](O[C@@H]2O[C@H](C)C[C@H](N(C)C)[C@H]2O)[C@](C)(O)C[C@@H](C)CN(C)[C@H](C)[C@@H](O)[C@]1(C)O [Azithromycin (Zithromax)]	22.8 µM	15.7 µM	0.827 µM	1.29 µM
O=c1[nH]c(=O)n([C@H]2C[C@H](O)[C@@H](CO)O2)cc1F [Floxuridine]	< 0.498 µM	< 0.498 µM	< 0.498 µM	< 0.498 µM
Oc1c(Br)cc(Br)c2cccnc12 [FENILOR]	< 9.85 µM	13.6 µM	< 9.85 µM	< 9.85 µM
COc1ccc(Cc2cnc(N)nc2N)cc1OC [DIAVERIDINE]	57.3 µM	29.9 µM	27.4 µM	26.7 µM
